Holding throughout (assay type): biochemical
Assay [1] has as its system Maillard reaction (lysozyme / fructose, dimer formation). The assay is described as follows: Maillard reaction-inhibiting effects (lysozyme dimer formation with fructose, SDS-PAGE densitometry). Conditions: 10 mg/mL lysozyme, 200 mM fructose, pH 7.4, 37° C., 4 days, dimer formation inhibition rate. The procedure: This Example examined Maillard reaction-inhibiting effects using, as test compounds, the compounds produced in the above-described Examples and the commercially available substances arginine hydroxamate (Compound No. 111), tyrosine hydroxamate (Compound No. 112), and tryptophan hydroxamate (Compound No. 113). More specifically, 10 mg/mL lysozyme, 200 mM fructose, and each of the above-described test compounds dissolved in a 0.4 mM sodium phosphate buffer (pH 7.4) so as to provide a concentrations of 0.1, 0.3, 1, or 3 mM were incubated at 37° C. for 4 days. After the incubation, the samples were subjected to SDS-PAGE, stained with Coomassie Brilliant Blue R-250, and quantitated for the formed dimmers using a densitometer. The Maillard reaction-inhibiting activity was defined as the dimmer formation inhibition rate of a test compound calculated on the basis that the amount of dimmer is 100% in the absence of the test compound, using, as blank, the amount of dimer in the absence of fructose and the test compound.

Assay [2] can be described thus: Methyl glyoxal-trapping activity test (DMB derivatisation, HPLC). Conditions: 0.02 mM methyl glyoxal, 0.2 mM test compound, PBS, 37° C., 30 minutes. The procedure:
In 0.2 mL of PBS were incubated 0.02 mM of methyl glyoxal and 0.2 mM of test compound at 37° C. for 30 minutes. Subsequently, a volume of 5 mM DMB (1,2-diamino-4,5-methylenedioxy benzene) solution equivalent to 10 μL of the incubation sample was added, followed by further incubation at 4° C. for 7 hours to react the remaining methyl glyoxal with DMB. After the end of reaction, a 0.4 M phosphate buffer solution (pH 7.2) was added for neutralization, followed by quantitating the modified product of methyl glyoxal-DMB using HPLC.
(§1) HPLC having a YMC-Pack Pro C18 column (φ4.6 mm×150 mm) and employing 5 mM sodium phosphate buffer (pH 7.4)-25% acetonitrile as a mobile phase was used at a flow rate of 0.7 mL/min to determine fluorescence strength at Ex352 nm and Em385 nm.
The proportion of methyl glyoxal trapped by the test compound was calculated as % trapping activity, based on the quantitative value of the total modified product of methyl glyoxal-DMB in the absence of the test compound.

The nature of assay [3]: Glyoxal-trapping activity test (DMB derivatisation, HPLC). Particulars: 0.02 mM glyoxal, 0.2 mM test compound, PBS, 37° C., 30 minutes. How it is done:
In 0.2 mL of PBS were incubated 0.02 mM of glyoxal and 0.2 mM of test compound at 37° C. for 30 minutes. Subsequently, a volume of 5 mM DMB (1,2-diamino-4,5-methylenedioxy benzene) solution equivalent to 10 μL of the incubation sample was added, followed by further incubation at 4° C. for 7 hours to react the remaining methyl glyoxal with DMB. After the end of reaction, a 0.4 M phosphate buffer solution (pH 7.2) was added for neutralization, followed by quantitating the modified product of glyoxal-DMB using HPLC.
as §1
The proportion of glyoxal trapped by the test compound was calculated as % trapping activity, based on the quantitative value of the total modified product of glyoxal-DMB in the absence of the test compound.

The mark [4] stands for this setting: test compound concentration 0.1 mM.
The mark [5] stands for this setting: test compound concentration 0.3 mM.
The mark [6] stands for this setting: test compound concentration 1 mM.
The mark [7] stands for this setting: test compound concentration 3 mM.

SMILES strings stand for the structures.

On to `CCCCCn1cc(CC(N)C(=O)NO)c2ccccc21` (racemic) [Compound No. 105, (RS)-2-amino-3-(1-pentyl-1H-indol-3-yl)-N-hydroxypropionamide], for which the “Maillard reaction-inhibiting activity (%)” value is given as 95% in assay [1] (setting [4]), 97% in assay [1] (setting [5]), 98% in assay [1] (setting [6]) and 98% in assay [1] (setting [7]). Also, the “Methyl-glyoxal-trapping activity (% trapping)” value in assay [2] came out at 93.3 ± 0.8 % trapping. Besides, in assay [3], the “Glyoxal-trapping activity (% trapping)” value was 69.7 ± 1.1 % trapping.

On to `CC(C)(C)Cn1c(CC[C@H](N)C(=O)NO)nc2ccccc21` [Compound No. 71, (S)-2-amino-N-hydroxy-4-[1-(2,2-dimethylpropyl)-1H-benzimidazol-2-yl]butyramide], for which the “Maillard reaction-inhibiting activity (%)” value is given as 71% in assay [1] (setting [4]), 97% in assay [1] (setting [5]), 98% in assay [1] (setting [6]) and 99% in assay [1] (setting [7]).

As for `CC(C)Cn1c(CC[C@H](N)C(=O)NO)nc2ccccc21` [Compound No. 72, (S)-2-amino-N-hydroxy-4-(1-isobutyl-1H-benzimidazol-2-yl)butyramide], the “Maillard reaction-inhibiting activity (%)” value in assay [1] (setting [4]) was 53%; in assay [1] (setting [5]), 94%; in assay [1] (setting [6]), 100%; in assay [1] (setting [7]), 101%.

For `N[C@@H](CCc1nc2ccccc2n1Cc1ccc(F)cc1)C(=O)NO` [Compound No. 73, (S)-2-amino-N-hydroxy-4-[1-(4-fluorobenzyl)-1H-benzimidazol-2-yl]butyramide], the “Maillard reaction-inhibiting activity (%)” value in assay [1] (setting [4]) is recorded as 94%; in assay [1] (setting [5]), 98%; in assay [1] (setting [6]), 98%; in assay [1] (setting [7]), 100%.

Regarding `CC(C)(C)c1ccc(Cn2c(CC[C@H](N)C(=O)NO)nc3ccccc32)cc1` [Compound No. 74, (S)-2-amino-N-hydroxy-4-[1-(4-t-butylbenzyl)-1H-benzimidazol-2-yl]butyramide], the “Maillard reaction-inhibiting activity (%)” value in assay [1] (setting [4]) was 98%; in assay [1] (setting [5]), 99%; in assay [1] (setting [6]), 101%; in assay [1] (setting [7]) it was 100%.

With `N[C@@H](CCc1nc2ccccc2n1C1CCCCC1)C(=O)NO` [Compound No. 75, (S)-2-amino-N-hydroxy-4-(1-cyclohexyl-1H-benzimidazol-2-yl)butyramide], the “Maillard reaction-inhibiting activity (%)” value in assay [1] (setting [4]) is listed as 82%; in assay [1] (setting [5]) it was 100%; in assay [1] (setting [6]), 100%; in assay [1] (setting [7]), 100%.

For the molecule `N[C@@H](CCc1nc2ccccc2n1C1CCOCC1)C(=O)NO` [Compound No. 76, (S)-2-amino-N-hydroxy-4-[1-(tetrahydropyran-4-yl)-1H-benzimidazol-2-yl]butyramide], the “Maillard reaction-inhibiting activity (%)” value in assay [1] (setting [4]) came out at 13%; in assay [1] (setting [5]), 65%; in assay [1] (setting [6]), 95%; in assay [1] (setting [7]), 98%.

For the molecule `Cc1cc2nc(CC[C@H](N)C(=O)NO)n(Cc3ccc(C(C)(C)C)cc3)c2cc1C` [Compound No. 85, (S)-2-amino-4-[1-(4-t-butylbenzyl)-5,6-dimethyl-1H-benzimidazol-2-yl]-N-hydroxybutyramide], the “Maillard reaction-inhibiting activity (%)” value in assay [1] (setting [4]) turned out to be 99%; in assay [1] (setting [5]), 100%; in assay [1] (setting [6]) it was 98%; in assay [1] (setting [7]), 98%.

For `CCCn1c(CC[C@H](N)C(=O)NO)nc2cc(C)c(C)cc21` [Compound No. 94, (S)-2-amino-4-(5,6-dimethyl-1-propyl-1H-benzimidazol-2-yl)-N-hydroxybutyramide], the “Maillard reaction-inhibiting activity (%)” value was 12% in assay [1] (setting [4]), 83% in assay [1] (setting [5]), 100% in assay [1] (setting [6]) and 102% in assay [1] (setting [7]).

Take `CCCCCn1c(CC[C@H](N)C(=O)NO)nc2cc(Cl)c(Cl)cc21` [Compound No. 96, (S)-2-amino-4-(5,6-dichloro-1-pentyl-1H-benzimidazol-2-yl)-N-hydroxybutyramide]: the “Maillard reaction-inhibiting activity (%)” value in assay [1] (setting [4]) stood at 99%; in assay [1] (setting [5]) it was 103%; in assay [1] (setting [6]) it was 104%; in assay [1] (setting [7]), 104%.

Regarding `CCCn1c(CC[C@H](NCC2CCCCC2)C(=O)NO)nc2ccccc21` [Compound No. 97, (S)-2-(cyclohexylmethyl-amino)-4-(1-propyl-1H-benzimidazol-2-yl)-N-hydroxybutyramide], the “Maillard reaction-inhibiting activity (%)” value in assay [1] (setting [4]) is 96%; in assay [1] (setting [5]), 98%; in assay [1] (setting [6]), 98%; in assay [1] (setting [7]) it was 98%.

Take `CC(C)(C)c1ccc(COc2ccc(C[C@H](N)C(=O)NO)cc2)cc1` [Compound No. 99, (S)-2-amino-3-[4-(4-t-butylbenzyloxy)phenyl]-N-hydroxypropionamide]: the “Maillard reaction-inhibiting activity (%)” value came out at 95% in assay [1] (setting [4]), 95% in assay [1] (setting [5]), 99% in assay [1] (setting [6]) and 101% in assay [1] (setting [7]).

For `N[C@@H](Cc1ccc(OCc2ccccc2-c2ccccc2)cc1)C(=O)NO` [Compound No. 100, (S)-2-amino-3-[4-(2-phenylbenzyloxy)phenyl]-N-hydroxypropionamide], the “Maillard reaction-inhibiting activity (%)” value in assay [1] (setting [4]) worked out at 93%; in assay [1] (setting [5]), 96%; in assay [1] (setting [6]), 96%; in assay [1] (setting [7]), 97%.

In the case of `N[C@@H](Cc1ccc(OCc2ccc([N+](=O)[O-])cc2)cc1)C(=O)NO` [Compound No. 101, (S)-2-amino-3-[4-(4-nitrobenzyloxy)phenyl]-N-hydroxypropionamide], the “Maillard reaction-inhibiting activity (%)” value in assay [1] (setting [4]) was 102%; in assay [1] (setting [5]) it was 102%; in assay [1] (setting [6]) it was 102%; in assay [1] (setting [7]), 98%.

With `N[C@@H](Cc1ccc(OCc2ccc(F)cc2F)cc1)C(=O)NO` [Compound No. 102, (S)-2-amino-3-[4-(2,4-difluorobenzyloxy)phenyl]-N-hydroxypropionamide], the “Maillard reaction-inhibiting activity (%)” value in assay [1] (setting [4]) was 78%; in assay [1] (setting [5]), 88%; in assay [1] (setting [6]) it was 94%; in assay [1] (setting [7]), 95%.

Regarding `N#Cc1ccc(COc2ccc(C[C@H](N)C(=O)NO)cc2)cc1` [Compound No. 103, (S)-2-amino-3-[4-(4-cyanobenzyloxy)phenyl]-N-hydroxypropionamide], the “Maillard reaction-inhibiting activity (%)” value in assay [1] (setting [4]) was found to be 89%; in assay [1] (setting [5]) it was 95%; in assay [1] (setting [6]), 100%; in assay [1] (setting [7]), 97%.

On to `CCCCCn1cc(C[C@H](N)C(=O)NO)c2ccccc21` [Compound No. 109, (S)-2-amino-3-(1-pentyl-1H-indol-3-yl)-N-hydroxypropionamide], for which the “Maillard reaction-inhibiting activity (%)” value is reported as 104% in assay [1] (setting [4]), 105% in assay [1] (setting [5]), 104% in assay [1] (setting [6]) and 103% in assay [1] (setting [7]).

Turning to `CCCCCn1cc(C[C@@H](N)C(=O)NO)c2ccccc21` [Compound No. 110, (R)-2-amino-3-(1-pentyl-1H-indol-3-yl)-N-hydroxypropionamide], the “Maillard reaction-inhibiting activity (%)” value in assay [1] (setting [4]) stood at 96%; in assay [1] (setting [5]), 103%; in assay [1] (setting [6]), 101%; in assay [1] (setting [7]), 101%.

Source of the values: patent publication US20080132539A1, “Hydroxamic Acid Derivative And Age Generation Inhibitor Containing The Derivative” (priority 2003, published 2008).
